Source: the supplement of paper PMC10307832

Columns and labels:
Test in all cases: relative viability (nuclei count vs DMSO), 5 days (fraction); higher = more cells survive
[1] = compound: CC(C)(C)c1cc(NC(=O)Nc2ccc(-c3cn4c(n3)sc3cc(OCCN5CCOCC5)ccc34)cc2)no1 [Quizartinib] + CS(=O)(=O)N1CCN(Cc2cc3nc(-c4cccc5[nH]ncc45)nc(N4CCOCC4)c3s2)CC1 [Pictilisib] (partner 1 µM)
How it was run: (§1)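 Cells from lung cancer lines were seeded into 1536-well plates and, one day later, dosed by pin tool. Treatments were either a single drug or a fixed dose of an anchor drug with five library-drug doses (not always all listed) in √10 steps. After 5 days, nuclei were stained in a one-step fixation (final 0.05% Triton X-100, 1% formaldehyde, 1 ug/ml Hoechst) and counted on 4× images, and relative viability is the treated-to-vehicle nuclei ratio, as the median of duplicate plates.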

[2] = compound: CC(C)(C)c1cc(NC(=O)Nc2ccc(-c3cn4c(n3)sc3cc(OCCN5CCOCC5)ccc34)cc2)no1 [Quizartinib] + Nc1ncn([C@H]2C[C@H](O)[C@@H](CO)O2)c(=O)n1 [Decitabine] (partner 2 µM)
How it was run: as §1

[3] = compound: COCC[n+]1c2c(n(Cc3cnccn3)c1C)C(=O)c1ccccc1C2=O [YM155] + CC(=O)Nc1cccc(-n2c(=O)n(C3CC3)c(=O)c3c(Nc4ccc(I)cc4F)n(C)c(=O)c(C)c32)c1 [Trametinib] (partner 0.02 µM)
How it was run: as §1

[4] = compound: COCC[n+]1c2c(n(Cc3cnccn3)c1C)C(=O)c1ccccc1C2=O [YM155] + NC(=O)Nc1cc(-c2cccc(F)c2)sc1C(=O)N[C@H]1CCCNC1 [AZD7762] (partner 0.2 µM)
How it was run: as §1

Cell Line | relative viability ([1]; first compound 0.001 µM) | relative viability ([1]; first compound 0.003162 µM) | relative viability ([1]; first compound 0.01 µM) | relative viability ([1]; first compound 0.03162 µM) | relative viability ([1]; first compound 0.1 µM) | relative viability ([2]; first compound 0.001 µM) | relative viability ([2]; first compound 0.003162 µM) | relative viability ([2]; first compound 0.03162 µM) | relative viability ([2]; first compound 0.1 µM) | relative viability ([3]; first compound 0.002 µM) | relative viability ([3]; first compound 0.006325 µM) | relative viability ([3]; first compound 0.02 µM) | relative viability ([3]; first compound 0.06325 µM) | relative viability ([4]; first compound 0.002 µM) | relative viability ([4]; first compound 0.006325 µM) | relative viability ([4]; first compound 0.02 µM) | relative viability ([4]; first compound 0.06325 µM) | relative viability ([2]; first compound 0.01 µM)
HCC-827 | 0.93 | 1.01 | 1.14 | 0.983 | 0.908 | 0.291 | 0.358 | 0.313 | 0.334 | 0.528 | 0.531 | 0.605 | 0.628 | 0.224 | 0.293 | 0.239 | 0.241 | –
NCI-H838 | 0.389 | 0.479 | 0.356 | 0.39 | 0.377 | 0.418 | 0.48 | 0.466 | 0.388 | 0.461 | 0.505 | 0.508 | 0.372 | 0.936 | 0.904 | 0.932 | 0.726 | 0.478
NCI-H3122 | 0.625 | 0.534 | 0.608 | 0.626 | 0.58 | 0.382 | 0.354 | 0.459 | 0.417 | 0.191 | 0.202 | 0.242 | 0.203 | 1.02 | 1.03 | 0.974 | 0.971 | 0.524
HCC-78 | 0.21 | 0.185 | 0.206 | 0.0784 | 0.216 | 0.651 | 0.624 | 0.631 | 0.751 | 0.698 | 0.756 | 0.785 | 0.879 | 0.612 | 0.779 | 0.755 | 0.629 | 0.619
